# Test results reported in patent US6541463B1, “Inhibitors of type 5 and type 3 17β-hydroxysteroid dehydrogenase and methods for their use” (Endorecherche, Inc., priority 1998, dated 2003).
# Experiments:
# [1] = molecular target: T1, human type 3 17β-hydroxysteroid dehydrogenase (Homo sapiens, UniProt P37058); experiment: Enzymatic assay for type 3 17β-HSD; format: biochemical
# T1 construct: expressed in transfected cells; host or cells: 293 cells, transient transfection; microsomal fraction (100 000×g pellet)
# T1 sequence (P37058 1-310): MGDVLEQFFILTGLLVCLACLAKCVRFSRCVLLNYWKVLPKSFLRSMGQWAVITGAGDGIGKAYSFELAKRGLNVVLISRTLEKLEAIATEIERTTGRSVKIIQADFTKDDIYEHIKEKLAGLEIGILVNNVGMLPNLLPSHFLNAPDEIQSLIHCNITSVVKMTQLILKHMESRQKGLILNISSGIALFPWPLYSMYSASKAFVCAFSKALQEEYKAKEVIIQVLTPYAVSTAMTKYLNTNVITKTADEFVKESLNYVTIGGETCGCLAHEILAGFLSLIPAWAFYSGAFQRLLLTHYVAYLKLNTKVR
# From the text: Enzymatic assay for types 1, 2, and 3 17β-HSD and types 1 and 3 3α-HSD”. Lower numbers of IC50 are desirable. Blank means that a determination was not done. The % of inhibition at the concentration of 3.10^−6M determined in preliminary screening test is reported in square braquets.
# (§1) Enzyme sources. 293 cells transiently transfected with expression vectors encoding types 1, 2 and 3 17β-HSD (Luu-The et al., J. Steroid Biochem. Molec. Biol., 55: 581-587, 1995), types 1 and 2 5α-reductase (Luu-The et al., J. Invest. Dermatol., 102: 221-226, 1994) and types 1 and 3 3α-HSD (Dufort et al. Biochem. Biophys. Res. Commun. 228: 474-479, 1996), using the calcium phosphate procedure (Kingston et al., In: Current Protocols in Molecular Biology. Edited by E. M. Ausbel, R. Brent, R. E. Kingston, D. D. Moore, J. G. Seidman, J. A. Smith, K. Struhl. John Wiley & Sons, New York, pp. 9.1.1-9.1.9, 1991; Luu-The et al., J. Invest. Dermatol., 102: 221-226, 1994). For assays using cell subfractions, cells were sonicated in 50 mM sodium phosphate buffer (pH 7.4), containing 20% glycerol and 1 mM EDTA and centrifuged at 10 000×g for 30 min before centrifugation for 100 000×g for 1 h to separate the mitochondrial and microsomal fractions, respectively. The cytosol fractions (100 000×g supernatant) was used to determine type 1 activity while the microsomal fraction (pellet at 100 000×g) was used for measurement of types 2 and 3 17β-HSD activities.
# (§2) Incubation. The enzymatic reaction was carried out at 37° C. in 1 ml of 50 mM sodium phosphate buffer, pH 7.4, containing 20% glycerol, 1 mM EDTA, and 2 mM cofactors (NADPH or AND^+) for 1 h in the presence of 0.1 μM ^14C-labeled substrate: estrone and 4-dione for types 1 and […] 17β-HSD, respectively, testosterone for type 2 17β-HSD as well as types 1 and 2 5α-reductases, DHT for types 1 and 3 3α-HSD activities, and the indicated concentration of inhibitor.
# (§3) Extraction of metabolites, migration on TLC and quantification were as described above for the assay of type 5 17β-HSD.
# [2] = molecular target: T2, human type 2 17β-hydroxysteroid dehydrogenase (Homo sapiens, UniProt P37059); experiment: Enzymatic assay for type 2 17β-HSD; format: biochemical; details: Table 4′, bracketed values, 3 · 10^−8M
# T2 construct: expressed in transfected cells; host or cells: 293 cells, transient transfection; microsomal fraction (100 000×g pellet)
# T2 sequence (P37059 1-387): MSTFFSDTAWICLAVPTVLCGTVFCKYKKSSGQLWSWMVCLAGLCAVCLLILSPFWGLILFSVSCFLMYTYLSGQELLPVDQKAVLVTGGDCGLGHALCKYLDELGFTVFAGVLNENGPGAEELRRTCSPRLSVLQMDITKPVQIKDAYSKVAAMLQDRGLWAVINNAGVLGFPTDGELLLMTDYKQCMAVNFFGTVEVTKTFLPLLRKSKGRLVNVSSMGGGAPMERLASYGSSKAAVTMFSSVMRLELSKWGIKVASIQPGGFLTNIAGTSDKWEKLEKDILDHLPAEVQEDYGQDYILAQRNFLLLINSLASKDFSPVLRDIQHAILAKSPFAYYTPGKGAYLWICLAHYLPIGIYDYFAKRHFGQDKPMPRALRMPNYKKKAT
# Method: The manner in which IC50 was determined is described in “Efficacy of Preferred Inhibitors: VI. Enzymatic assay for types 1, 2, and 3 17β-HSD and types 1 and 3 3α-HSD”. […] numbers of IC50 are desirable. Blank means that a determination was not done. […]
# as §1, §2, §3
# [3] = molecular target: T3, human type 5 17β-hydroxysteroid dehydrogenase (Homo sapiens, UniProt P42330); experiment: Inhibition of human type 5 17β-HSD activity in transfected 293 cells; format: cell-based; details: Table 4′; read-out: Inhibition Type V 17β-HSD IC50
# T3 construct: screen again a human placental λgt11 cDNA to get the full length cDNA clone; expressed in transfected cells; host or cells: human embryonal kidney 293 cells (pCMV / pCMV-neo vector)
# T3 sequence (P42330 1-323): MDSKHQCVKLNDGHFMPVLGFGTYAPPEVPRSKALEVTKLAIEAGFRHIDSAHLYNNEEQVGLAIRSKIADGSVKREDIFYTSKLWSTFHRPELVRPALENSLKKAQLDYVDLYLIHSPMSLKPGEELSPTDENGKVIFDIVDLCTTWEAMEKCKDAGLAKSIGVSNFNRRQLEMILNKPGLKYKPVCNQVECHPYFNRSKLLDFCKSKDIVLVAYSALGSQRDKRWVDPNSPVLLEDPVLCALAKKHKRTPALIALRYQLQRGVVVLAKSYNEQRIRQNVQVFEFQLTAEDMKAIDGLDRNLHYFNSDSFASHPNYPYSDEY
# Method: The manner in which IC50 was determined is described in “Efficacy of the Preferred Inhibitors”. Lower numbers for IC50 are desirable.
# Using a oligoprimer pair (5′-GGA-AAT-CGT-GAC-AGG-GAA-TGG-ATT-CCA-AAC-AG-3′, 5′-GGA-ATT-CTT-TAT-TGT-ATT-TCT-GGC-CTA-TGG-AGT-GAG-3′) derived from human aldoketoreductase (Qin et al., J. Steroid Biochem. Molec. Biol. 46: 673-679, 1993) and polymerase chain reaction (PCR), we have amplified from a human placental λgt11 cDNA library (Clontech Laboratories Inc., Palo Alto, Calif.) a cDNA fragment that was used as probe to screen again a human placental λgt11 cDNA to get the full length cDNA clone. The amplified cDNA fragment was purified on agarose gel and labeled with [α^32P]dCTP (Amersham Corp.) using the random primer labeling kit from Pharmacia Inc. PCR amplification reaction medium contained 50 mM KCl, 10 mM Tris-HCl, pH 8.3, 0.1% gelatin, 1 mM MgCl2, 250 μM dNTP, 0.25 μM oligonucleotide primers, and 200 ng of DNA prepared from human placental λgt11 cDNA library. The aqueous phase was overlaid with 75 μL of mineral oil to avoid evaporation. The mixture was heated at 98° C. for 5 min, following the temperature reduction to 72° C., 1 unit of Taq DNA polymerase was added. Using a DNA Thermal Cycler (Perkin-Elmer Corp.), 30 cycles of amplification were carried out using a step program (94° C., 1 min; 60° C., 1 min; and 72° C., 1 min)/cycle.
# Approximately 5×10^5 recombinant phage plaques were screened with 1.5×10^6 cpm/ml of the probe. Prehybridization was performed for 4 h at 42° C. in 50% formamide, 5× Denhardt's solution (1× Denhardt's being 0.02% polyvinyl pyrrolidone, 0.02 Ficoll, 0.02 bovine serum albumin), 5×SSPE (1×SSPE being 0.18M NaCl, 10 mM NaH2PO4, pH 7.4, 1 mM EDTA), 0.1% SDS, and 100 μg/ml yeast tRNA. The probe was denatured by heating at 100° C. for 5 min, before being added to the hybridization solution at 42° C. overnight. Filters were then washed twice at room temperature in 2×SSC (1×SSC being […], pH 7.0), 0.1% SDS, and twice in 0.1×SSC, 0.1% SDS at 60° C. Positive recombinant plaques were purified by replating twice and grown in liquid culture. Phage DNA were isolated by centrifugation for 90 min at 105,000×g, and DNA was then isolated by phenol extraction and precipitation with isopropanol (Karen et al. 1987; In: Current Protocols in Molecular Biology (F. M. Ausubel, R. Brent, E. Kingston, D. D. Moore, T. G. Seidman, T. A. Smith and K. Struhl, eds), Wiley & Sons, New York, pp. 1.13.1-1.13.6).
# The phage DNA were digested with EcoRI restriction enzymes and the resulting cDNA fragments were inserted into the EcoRI site downstream to the cytomegalovirus (CMV) promoter of the pCMV vector (kindly provided by Dr. Matthew, Cold Spring Harbor, N.Y., USA). Recombinant pCMV plasmids were amplified in Escherichia Coli DH5α competent cells, and were isolated by alkaline lysis procedure (Maniatis et al., In: Molecular cloning: a laboratory manual, Cold Spring Harbor Laboratory., 1982). Sequencing of double-stranded plasmid DNA was performed according to the dideoxy chain termination method (Sanger et al., PNAS 74: 5453-5467, 1977) using a T7 DNA polymerase sequencing kit (Pharmacia LKB Biotechnology). To avoid errors, all sequences were determined by sequencing both strands of the DNA. Oligonucleotide primers were synthesized in our laboratory with a 394 DNA/RNA synthesizer (Applied Biosystem).
# The pCMV vector contain 576 nucleotides of the pCMV promoter (followed by 432 bp of small t intron (fragment 4713-4570) and poly adenylation signal (2825-2536)of SV40, followed by 1989 bp of the Pvu II(628)-AatII (2617) fragment from pUC 19 vector (New England Biolabs) that contains an E. Coli origin of replication and an ampicillin resistance gene for propagation in E. Coli. […]
# [4] = tested on: Shionogi mouse mammary carcinoma cells; experiment: Androgenic activity: stimulation of proliferation of Shionogi cells; format: cell-based; details: Table 4′
# Method: In column 9, the androgenic activity of preferred type 5 inhibitors expressed as the percentage of stimulation of proliferation of Shionogi cells at concentrations of 10^−7 M (left number) and 10^−6 M (right number) of inhibitor. The manner in which the stimulation is determined is described in “Other Tests; B-Androgenic/Antiandrogenic Activity”. Lower numbers are desirable. ND means that a determination was not done.
# (§4) Androgenic/antiandrogenic activity of some preferred compounds has been measured using the Shionogi mouse mammary carcinoma cells.
# (§5) Minimal essential culture medium (MEM), non-essential amino acids, and fetal calf serum were purchased from Flow Laboratories. In order to remove endogenous steroids, serum was incubated overnight at 4° C. with 1% activated charcoal (Norit A, Fisher) and 0.1% Dextran T-70 (Pharmacia). A 2-h supplementary adsorption was performed at 25° C. in order to further remove protein-bound steroids. Serum was also inactivated by a 20-min incubation at 56° C.
# (§6) 5α-dihydrotestosterone (DHT) was obtained from Steraloids. The antiandrogen hydroxyflutamide (OH-FLU) was kindly supplied by Drs. T. L. Nagabuschan and R. Neri (Schering Corporation, Kenilworth, U.S.A.).
# (§7) Shionogi male mice bearing androgen-sensitive mammary tumors were obtained from Drs. Keishi Matsumoto, Osaka, Japan, and Yvonne Lefebvre, Ottawa, Canada. For primary culture, tumors were excised and washed in ice-cold sterile 25 mM Hepes buffer (137 mM NaCl; 5 mM KCl; 0.7 mM Na2HPO4; 10 mM glucose, pH 7.2). After mincing with scissors, the tumor minces were digested for 2 h at 37° C. in Hepes buffer containing 3.8 mg/ml collagenase (Clostridium, Boehringer), 1.5 mg/ml hyaluronidase II (Sigma), and 3% bovine serum albumin fraction V (Schwartz-Mann). Dispersed cells were collected by centrifugation (500×g for 10 min), washed twice by suspension in minimal essential medium (MEM) containing 5% dextran-coated charcoal-treated fetal calf serum (DCC-FCS), 1% non-essential amino acids, 10 IU/ml penicillin, 50 μg/ml streptomycin, and 100 nM dihydrotestosterone (DHT) (Steraloids).
# (§8) Cells were plated in the same medium at a density of 75 000 cells/ml in 75 cm^2 flasks under an atmosphere of 5% carbon dioxide in air at 37° C. The medium was changed weekly. The steroids and antisteroids were dissolved in ethanol and kept in stock solutions chosen to yield final ethanol concentrations less than 0.01% in the culture medium.
# (§9) Cells were subcultured at near-confidence by gentle digestion in a solution of 0.1% pancreatin (Flow Laboratories) in Hepes buffer containing 3 mM ethylenediaminetetraacetic acid (EDTA) (pH 7.2). Cells were pelleted by centrifugation, resuspended in culture medium, counted in a Coulter counter, and replated as described above. Soft agar cloning was performed as described (Stanley et al., Cell 10: 35-44, 1977) in the presence of 100 nM DHT.
# (§10) Cells were plated in 24-well plates at a density of 20 000 cells/well. The indicated increasing concentrations of agents were added to triplicate dishes, and cells were grown for 10-12 days with changes of medium every 3-4 days. Cell number was measured by direct counting in a Coulter counter.
# (§11) ED50 values of action of DHT and glucocorticoids were calculated according to a least-square regression as described (Rodbard, Endocrinology 94: 1427-1431, 1974). Statistical significance was calculated according to a multiple-range test (Kramer, Biometrics 12: 307-310,1956).
# [5] = tested on: Shionogi mouse mammary carcinoma cells; experiment: Antiandrogenic activity: inhibition of DHT-induced proliferation of Shionogi cells; format: cell-based; details: Table 4′, DHT-induced proliferation
# Method: The manner in which the inhibition is determined is described in “Other Tests; B-Androgenic/Antiandrogenic Activity”. Lower numbers are desirable. ND means that a determination was not done.
# as §4, §5, §6, §7, §8, §9, §10, §11
smiles,measurement,setting,value
"C[C@]12CC[C@@H](O)C[C@@H]1CC[C@@H]1[C@@H]2CC[C@]2(C)C(=O)CC[C@@H]12 [androsterone, reference compound]",IC50,[1],200 nM
CC1(C)CCC2(CCC3C4CC(=O)c5cc(O)ccc5C4CCC32C)OC1=O (centres unmarked) [EM-01608-D],inhibition,[2]; read-out: Inhibition Type 2 17β-HSD Activity [% Inh. at 3 · 10^−8M],58%
same,IC50,[3],3.6 ± 0.5 nM
"CCC1(CC)CC[C@@]2(CC[C@H]3[C@@H]4CCc5cc(O)ccc5[C@H]4CC[C@@]32C)OC1=O [EM-1416, 1,3,5(10)-Estratrien-3-ol-17(R)-spiro-2′-(5′,5′-diethyl-6′-oxo)tetrahydropyran]","Androgenic Activity Shionogi, Basal E^−6",[4]; E^−6,−4%
same,"Androgenic Activity Shionogi, Basal E^−7",[4]; E^−7,28%
same,"Antiandrogenic Activity Shionogi, DHT E^−6",[5]; E^−6 (10^−6 M),−41%
same,"Antiandrogenic Activity Shionogi, DHT E^−7",[5]; E^−7,26%
same,Inhibition Type 2 17β-HSD Activity [% Inh. at 3 · 10^−8M],[2],[76] %
